Test [1] concerns drug-induced gingival overgrowth (DIGO). In words: Mice study #2: preventive and active treatment of DIGO, gingival overgrowth. Type of test: in vivo, C57BL/6 mice. On the procedure:
Using the C57BL/6, the DIGO were induced in 33 male mice for 14 days in an anaesthetized condition as described above. […] In the prevention group, folic acid (10 μg/ml) was included in the drinking water from the time of ligature placement until end of the study (14 days). […] In the combined prevention and treatment group, both modes of folic acid treatments had provided including PO and local gel application as described above. Mice study #2: Validation study for preventive and active treatment for DIGO. […] One set of these mice were used as a control disease group (FIG. 23A) while the other group was treated with folic acid (gel and in drinking water) (FIG. 23B). In the prevention and treatment group, folic acid (10 μg/ml) (Sigma-Aldrich, St. Louis MO) was included in the drinking water from the time of suture placement until end of the study (14 days). Additionally, gel applications were repeated daily until the end of the study (14 days). The four groups in this study were: • 1. Control group (n=2): no interventions were performed • 2. […] 2D planimetry with stereomicroscopy. […] 3D Digital Imaging and Volumetric Analysis. A 3Shape TRIOS® intraoral digital scanner was used to scan all of the dissected tissue and create a 3D STL (STereoLithography) file from each scan. Autodesk […]® (Autodesk 23 Inc., CA, USA) was used to overlay each individual scan on top of one another, keeping each of the distinct mice studies separately. Anatomical landmarks of the mandibular incisors, interdental papilla, and molars were used to make sure scans were accurately overlaid. Autodesk […]® was then used to selectively remove the mandibular incisors from each digital scan. The scans were all saved and imported into Autodesk Netfabb® (Autodesk Inc., CA, USA) where plane cuts were used to simultaneously crop all scans to include only the essential parts of the gingival tissue that would indicate an increase or decrease in growth. The cropped scans were saved and imported into open source software platform 3DSlicer 4.8, where they were volumetrically analyzed using the “Volumes” module. The quantified volume values were statistically analyzed in GraphPad Prism® 7 (GraphPad Software Inc., CA, USA).

The next test concerns LITAF. As to the kind of experiment: Mice study #2: LITAF immunoblotting of gingival samples. Particulars: pattern as for Myd88 (disease higher than control and treatment). Type of test: in vivo, C57BL/6 mice. On the procedure:
Western blot analysis. Cells were seeded in 60 mm plates with a density of 5×10^5 cells per plate and washed briefly with Dulbecco's phosphate-buffered saline (Gibco, Waltham, MA, USA). Whole cell lysates were prepared using RIPA lysis buffer containing protease inhibitor cocktail (Sigma-Aldrich). Total protein concentration was determined using the BCA reagent (Pierce, Waltham, MA, USA). 20 μg of total protein were resolved on sodium dodecyl sulfate-polyacrylamide gel electrophoresis and transferred to polyvinylidenedifluoride membrane and immunoblotted. The blots were incubated for 1 h in 1% bovine serum albumin (BSA) (Sigma-Aldrich) to block the non-specific bindings followed by over-night incubation in primary antibodies (MyD88 and pP65 from Cell Signaling Technology, and human LITAF ThermoFisher Sigma) at 4° C. on shaker. Next day, blots were washed for three times (10 min each) in Tris-buffered saline containing 1% Tween20 (TBST) followed by incubation with secondary antibody (Goat anti-rabbit IgG HRP) with 1:10,000 dilution for 1 h. […] The band intensities were quantified using software ImageJ (NIH, USA) and relative protein levels were normalized by β-actin (Cell Signaling). […] The band intensities were measured by the software ImageJ (NIH, USA), and relative protein levels were normalized by β-actin.

In test [2] the test system is drug-induced gingival overgrowth (DIGO). In words: Mice study #1: pilot DIGO model (suture + cyclosporine), gingival overgrowth. Type of test: in vivo, BALB/c mice.
Description: Animal Study. […] Therefore, we developed a novel in-vivo anterior ligature model to develop DIGO. We examined two strains of mice, BALB/c and C57BL/6 were used. Sterile ligature (5-0 Silk thread) were placed around the lower central incisors on both sides in mice for 14 days at anaesthetized conditions using ketamine and xylazine. Mice were daily checked for placement of suture. […] The vehicle used to dissolve the drug was 10% ethanol and 10% polyethyleneglycol castor oil (Sigma-Aldrich, St. Louis MO) in sterilized distilled water to a volume of 100%. All mice were scarified at day 14. Euthanasia was performed using carbon dioxide followed by cervical dislocation.
In the combined prevention and treatment group, both modes of folic acid treatments were provided including PO and local gel application. […]
A 3Shape TRIOS® intraoral digital scanner was used to scan all of the dissected tissue and create a 3D STL (STereoLithography) file from each scan. […] The cropped scans were saved and imported into open source software platform 3DSlicer 4.8, where they were volumetrically analyzed using the “Volumes” module. The quantified volume values were statistically analyzed in GraphPad Prism® 7 (GraphPad Software Inc., CA, USA).

As for `Nc1nc2ncc(CNc3ccc(C(=O)N[C@@H](CCC(=O)O)C(=O)O)cc3)nc2c(=O)[nH]1` [folic acid], the “gingival overgrowth, 2D planimetry with stereomicroscopy” value is “even further reduce these gingival overgrowths” in test [1] (active treatment after 1 week of disease) and “all mice appear to respond” in test [1] (preventive treatment). In addition, the “gingival overgrowth, clinical images” value in test [1] (active treatment: DIGO 1 week, sutures removed and cyclosporine stopped, then folic acid p.o. & local) is reported as “effectively reduce gingival overgrowths”; in test [1] (preventive treatment, folic acid p.o. & local, 14 days), “prominently reduced gingival overgrowth”. In addition, the “mean gingival volume, 3D morphometric analysis” value in test [1] (folic acid group, day 14, n=5, disease group 23.17±1.134 mm^3, p<0.005) is on record as approximately 16.19±0.9224 mm^3. In addition, the “overlaid 3D volumes, control vs folic acid treated” value in test [1] (representative samples, day 14, some increase on lingual surfaces) is reported as “little difference”. Further, the “LITAF expression, pattern across groups” value in the test with LITAF is reported as “a similar pattern”. In addition, the “gingival overgrowth, 3D volumetric analysis” value in test [2] (prevention sample vs disease sample, overlaid scans) is “reduced gingival overgrowth”. In test [2] (prevention: folic acid p.o. (10 μg/ml drinking water) & local gel, apparent at day 8, vs disease group), the “gingival swelling and inflammation, clinical images” value is “less swelling and inflammation”.
